Read-outs that look alike come from different tables or passages of the source.
Columns and labels:
[1] = Single-blind, three-phase crossover study of single oral doses: blood analyses of metabolic, hormonal and electrolyte parameters in 8 normal male subjects; type: in vivo, human; conditions: for Free fatty acids, mean / Angiotensin I, mean / Renin, mean / C-peptide, mean / Potassium, mean / Uric acid, mean / Aldosterone, mean / Insulin, mean / Urea, mean / VLDL Cholesterol, mean / Norepinephrine, mean / HDL Cholesterol, mean / Glucose, mean / Triglycerides, mean / LDL Cholesterol, mean / Total cholesterol, mean / Fibrinogen, mean: 8 normal subjects; for Free fatty acids, mean: 0 h: PZG 0.47, PZA 0.51; for Angiotensin I, mean: 0 h: PZG 0.84, PZA 0.66; for Renin, mean: 0 h: PZG 1.0, PZA 1.5; for C-peptide, mean: 0 h: PZG 1.1, PZA 1.2; for Potassium, mean: 0 h: PZG 4.2, PZA 4.0; for Uric acid, mean: 0 h: PZG 6.0, PZA 5.6; for Aldosterone, mean: 0 h: PZG 8.6, PZA 13.6; for Insulin, mean: 0 h: PZG 8.8, PZA 5.4; for Urea, mean: 0 h: PZG 17, PZA 17; for VLDL Cholesterol, mean: 0 h: PZG 20, PZA 17; for Norepinephrine, mean: 0 h: PZG 37, PZA 75; for HDL Cholesterol, mean: 0 h: PZG 41, PZA 46; for Glucose, mean: 0 h: PZG 87, PZA 84; for Triglycerides, mean: 0 h: PZG 101, PZA 86; for LDL Cholesterol, mean: 0 h: PZG 107, PZA 104; for Total cholesterol, mean: 0 h: PZG 168, PZA 167; for Fibrinogen, mean: 0 h: PZG 266, PZA 293
Description: A three-phase study, where single oral doses of placebo, followed in one week by 900 mg of pyrazinoylguanidine (PZG), followed in three weeks by 300 mg of pyrazinoic acid (PZA), involving normal male subjects, was carried out to compare and contrast metabolic effects of single doses of PZG and PZA. A purpose of the study was to determine whether the metalbolic effects observed after 3 and also 21 days of PZG administration in patients with renal disease or with diabetes also occurred after a single oral dose. […]
(§1) Eight male nonsmoking subjects aged 24-32 participated. They were normal by history, physical exam and routine laboratory analysis of blood and urine.
(§2) This was a single-blind, three-phase crossover study beginning after a 10-hour fast at 8 a.m., designated time 0 (control), when the first venipuncture occurred. In phase I, three capsules of lactose were given orally, followed by venipunctures 2 and 4 h later. In phase II, 1 week later, after a control blood specimen drawn at 8 a.m., PZG (900 mg) was given orally and blood specimens taken 2 and 4 h thereafter. In phase III, 3 weeks later, after a control blood specimen drawn at 8 a.m., PZA (300 mg) was given orally and blood specimens taken 2 and 4 h later.
(§3) Each phase consisted of taking three capsules, each containing 300 mg. In phase I, all three capsules were of lactose; in phase II, all three were PZG; and in phase III, two capsules were lactose and one PZA. All capsules appeared indistinguishable and were given to each subject who swallowed them with water in the presence of an investigator.
(§4) Once obtained, blood specimens were immediately spun. Refrigerated serum or plasma was analyzed within 24 h for glucose, insulin, electrolytes, blood urea nitrogen, creatinine, liver function tests, triglycerides, total cholesterol, high-density lipoprotein (HDL) cholesterol, low-density lipoprotein (LDL) cholesterol, very-low-density lipoprotein (VLDL) cholesterol, free fatty acids, and fibrinogen.
Repeated measures of analysis of variance were used to compare each subject's placebo, PZG and PZA phase. Two-tailed Student t-tests were performed between groups. All results are reported as means ±SD. Statistical significance was considered when p<0.05. The results are illustrated in Tables 1-4.

[2] = Serum concentration of PZG or PZA after single oral dose in the crossover study; type: in vivo; conditions: human, 300 mg
Description: as §1, §2, §3, §4

[3] = in vivo; cited from earlier work
[4] = system: cutaneous vasomotor reaction of blush area; assay: Exploratory (pilot) study: serum concentrations and cutaneous vasomotor reaction after different oral PZA doses in two subjects; type: in vivo, human
Description: (§5) Comparisons of mean serum or plasma concentrations ±SD during placebo, PZG and PZA phases are presented in Table 1 for glucose, insulin, C-peptide, free fatty acids and norepinephrine. Comparisons of mean serum or plasma concentrations ±SD during these three phases are presented in Table 2 for triglycerides, VLDL, LDL, HDL, total cholesterol, fibrinogen and serum PZG and PZA concentrations. Note the close agreement of serum PZG and PZA concentrations at 2 h and also at 4 h after their administration. Table 3 compares mean serum or plasma concentrations ±SD of renin, angiotensin I, adlosterone, potassium, urea and uric acid during the three phases of the study. […] In an earlier pilot experiment to determine serum PZA concentrations following different PZA doses, a first subject ([…]) after a single oral dose of 300 mg PZA developed unexpectedly a typical cutaneous vasomotor reaction of their blush area which included flushed, warm skin of face, neck and shoulders with a mild rash for about 90 min. […] They described the reaction variously as warm redness or flushed head and neck, rash and itching (Table 4). These reactions, which were graded from 6 (most severe) to 0 (not observed), lasted from 30 min in 3 subjects to 4 h in 1 subject. […] No significant correlation occurred between score of reaction (effect+duration) and PZA peak blood concentration among the subjects (r=0.281) (Table 4).
(§6) ^1 Score = warm + redness (flush) + rash + itching + duration. Duration
(§7) as 0.5 h, 1, 2, 4 h (reaction and duration as noted).

[5] = as above; type: in vivo, human; conditions: human, serum, po, exploratory study; for concentration at 1 h: read-out: Serum PZG, 1 h; for concentration at 2 h: read-out: Serum PZG, 2 h
Description: as §5, §6, §7

[6] = system: cutaneous vasomotor reaction of blush area; assay: Cutaneous vasomotor response (and tolerability) after a single oral dose in 8 male volunteers; type: in vivo, human; design: key to Cutaneous vasomotor response, Score (0-6), Mean: graded 0 = not observed to 6 = most severe reaction
Description: as §1, §2, §5, §6, §7

[7] = 2 h after single oral dose (PZG 900 mg, PZA 300 mg)
[8] = 4 h after single oral dose (PZG 900 mg, PZA 300 mg)

Potassium, mean [1, 7]: 4.6 meg/l | Uric acid, mean [1, 7]: 6.3 mg/dL | Potassium, mean [1, 8]: 4.3 meg/l | Uric acid, mean [1, 8]: 6.2 mg/dL | effect on potassium blood concentrations ([1]; single oral dose, within 4 h): not changed | effect on uric acid plasma concentration ([1]; single oral dose, within 4 h): increased | concentration at 2 h ([2]; 2 h after single oral dose (PZG 900 mg, PZA 300 mg), 8 normal subjects, read-out: Serum concentration of PZG or PZA, mean): 5000 ng/mL | concentration at 4 h ([2]; 4 h after single oral dose (PZG 900 mg, PZA 300 mg), 8 normal subjects): 3000 ng/mL | concentration at 2 h ([2]; single 300-mg dose of PZA, individual subjects one, read-out: PZA 2-hour serum conc): 5600 ng/mL | concentration at 2 h ([2]; single 300-mg dose of PZA, mean of 8 male volunteers, read-out: PZA 2-hour serum conc, Mean): 4960 ng/mL | Cutaneous vasomotor response, Score (0-6), exploratory study ([4]; subject two, single oral dose 600 mg): 0 | cutaneous vasomotor reaction ([4]; subject two, single oral dose of 600 mg PZA): no cutaneous vasomotor reaction | Cutaneous vasomotor response, Score (0-6), exploratory study ([4]; subject, single oral dose 300 mg): 6 | duration of cutaneous vasomotor reaction ([4]; subject, single oral dose of 300 mg PZA, face, neck and shoulders with mild rash): about 90 min | half-life ([5]; subject two, 600 mg): 5 h | concentration at 1 h ([5]; subject two, 600 mg): 10200 ng/mL | concentration at 2 h ([5]; subject two, 600 mg): 12000 ng/mL | half-life ([5]; subject, 300 mg): 3 h | concentration at 1 h ([5]; subject, 300 mg): 6200 ng/mL | concentration at 2 h ([5]; subject, 300 mg): 4800 ng/mL
SMILES: O=C(O)c1cnccn1 [PZA, pyrazinoic acid]
effect on mean values for serum glucose, insulin, C-peptide, triglycerides and free fatty acids ([1]; 0, 2 and 4 hours after administration): decreased | Free fatty acids, mean [1, 7]: 0.10 meq/l | Angiotensin I, mean [1, 7]: 0.75 ng/ml per h | Renin, mean [1, 7]: 1.7 ng/ml per h | C-peptide, mean [1, 7]: 1.0 ng/mL | Aldosterone, mean [1, 7]: 12.3 ng/dL | Insulin, mean [1, 7]: 3.7 μlU/ml | Urea, mean [1, 7]: 17 mg/dL | VLDL Cholesterol, mean [1, 7]: 15 mg/dL | Norepinephrine, mean [1, 7]: 61 pg/mL | HDL Cholesterol, mean [1, 7]: 41 mg/dL | Glucose, mean [1, 7]: 85 mg/dL | Triglycerides, mean [1, 7]: 77 mg/dL | LDL Cholesterol, mean [1, 7]: 126 mg/dL | Total cholesterol, mean [1, 7]: 179 mg/dL | Fibrinogen, mean [1, 7]: 278 mg/dL | Free fatty acids, mean [1, 8]: 0.09 meq/l | Angiotensin I, mean [1, 8]: 0.73 ng/ml per h | Renin, mean [1, 8]: 2.1 ng/ml per h | C-peptide, mean [1, 8]: 0.7 ng/mL | Aldosterone, mean [1, 8]: 12.5 ng/dL | Insulin, mean [1, 8]: 3.7 μlU/ml | Urea, mean [1, 8]: 16 mg/dL | VLDL Cholesterol, mean [1, 8]: 14 mg/dL | Norepinephrine, mean [1, 8]: 67 pg/mL | HDL Cholesterol, mean [1, 8]: 45 mg/dL | Glucose, mean [1, 8]: 80 mg/dL | Triglycerides, mean [1, 8]: 69 mg/dL | LDL Cholesterol, mean [1, 8]: 109 mg/dL | Total cholesterol, mean [1, 8]: 168 mg/dL | Fibrinogen, mean [1, 8]: 278 mg/dL | effect on plasma concentrations of nonesterified fatty acids ([1]; PZA (Table 1)): reduce | effect on insulin, C-peptide, free fatty acids and triglyceride serum concentrations ([1]; at equivalent plasma concentrations of PZG and PZA): reduced | effect on LDL, HDL and total cholesterol ([1]; single oral dose, within 4 h): not altered systematically | effect on very-low-density lipoprotein (VLDL) ([1]; single oral dose, within 4 h): decreased | effect on plasma norepinephrine ([1]; single oral dose, not statistically significant): did not elevate | effect on serum triglycerides [3]: lower serum triglycerides | effect on uric acid blood concentrations [3]: increase uric acid blood concentrations | onset of cutaneous reaction relative to peak serum concentration ([6]; 300 mg PZA): the onset preceded peak serum PZA concentrations | subjects that responded with a cutaneous vasomotor reaction ([6]; 300 mg PZA): 7 of 8 | seriousness of cutaneous vasomotor reactions ([6]; 300 mg PZA, 8 subjects): None of the cutaneous vasomotor reactions was serious enough to interfere with participation in the study | subjects without cutaneous vasomotor reaction ([6]; 300 mg PZA, 8 subjects): One subject among the 8 had no reaction | duration of cutaneous vasomotor reaction (longest) ([6]; 300 mg PZA, in 1 subject): 4 h | duration of cutaneous vasomotor reaction (shortest) ([6]; 300 mg PZA, in 3 subjects): 30 min | effect on blush area ([6]; PZA): transiently stimulate | Cutaneous vasomotor response, Score (0-6), Mean ([6]; single 300-mg dose of PZA, mean of 8 male volunteers): 3.25
